Measurements published in paper PMC9408991, “Antitumor Effects of a New Retinoate of the Fungal Cytotoxin Illudin M in Brain Tumor Models” (International Journal of Molecular Sciences, 2022).

Tests used:
NE-4C neural stem cells = assay: Neuronal differentiation of NE-4C neural stem cells (β-tubulin III staining); type: cell-based, mouse; details: 10 nM, β-tubulin III staining
Protocol: NE-4C cells and their differentiated progeny neurons can be immunohistochemically distinguished by the presence of β-tubulin III only in the latter (Figure 3).
Astroglia cells grown on poly-L-lysine-coated glass cover slips were fixed with 4% paraformaldehyde in PBS for 20 min at room temperature and then permeabilized with Triton X-100 (0.1% v/v in PBS; 5 min). Nonspecific antibodies were blocked by incubation with 3% FBS in PBS (room temperature, 1 h). α-GFAP antibody (rabbit, DAKO) was used in a dilution of 1:2000 and was visualized by anti-rabbit IgG Alexa 594 (1:1000). DAPI (4′,6-diamidino-2-phenylindole) was used for nuclei staining. Fluorescence images were captured manually on a Zeiss Axiovert 200 M microscope fitted with 20- to 60-fold zoom and a Zeiss AxioCam MRm digital camera. Further applied antibodies were tubulin III (Sigma T5076), used at a dilution of 1:1000, and Annexin V. Cy3.18 (Sigma A4963).

[1] = tested on: retinoid-responsive elements (RARE); assay: RA reporter assay, F9 RARE-lacZ reporter cells; type: cell-based; details: 10 nM; control 45
Description: More typical of retinoic acid is its contribution to cell differentiation during vertebrate embryonic development by interacting with nuclear receptors, which bind to specific retinoid-responsive elements (RARE) within the promoters of subordinate genes, activating their transcription. To verify that retinoate 2 also binds to RARE, we used a reporter assay with F9 teratocarcinoma cells featuring a RARE located within the cis-acting regulatory sequences of the human retinoic acid receptor alpha gene and immediately upstream of the E. coli lacZ genes, which thus acquire retinoid responsivity. LacZ expression in cells treated with various concentrations of 2 was then quantitated by densitometric analysis of β-galactosidase activity visualized by X-Gal staining.
The F9 embryonal carcinoma cell line, stably transfected with the 1.8 kb promoter sequence of RARb2 coupled to the lacZ gene, was used to measure active retinoids. The assay is appropriate for detection of all-trans RA but is able to detect other retinoid isomers as well. The F9 reporter cells were maintained in 10% FCS containing DMEM in the presence of 400 ug/mL G418. A day before the assay, F9 cell were seeded onto 24-well plates (100,000 cell/well). The cells were than treated with various concentrations of 2. […]

## CC1=C(/C=C/C(C)=C/C=C/C(C)=C/C(=O)O)C(C)(C)CCC1 [all-trans retinoic acid, reference compound]
NE-4C neural stem cells
  differentiation of NE-4C stem cells to neurons: differentiate to neurons
[1]
  gray value (densitometric analysis of β-galactosidase activity): 175
